# Measured values: US20240091366A1, “NOVEL ACID-SENSITIVE APTAMER TRIPTOLIDE CONJUGATE AND APPLICATIONS” (priority 2022, published 2024)
# Values joined by “and” are separate entries in the source; they are usually repeats but may differ in a detail not shown here. Equal values may be shown once.
# Legend:
# [1] = system: lung cancer cell line A549; assay: In vivo antitumor activity, lung cancer xenograft in nude mice; design: species or system mouse; Tumor weight: unit not given here; conditions: A549 model, once every 2 days, 8 doses
# Text: The following are the in vivo activity studies conducted in different tumor-bearing mice:
# A PBS negative control group was set up.
# [2] = system: hepatocellular carcinoma cell line HepG2; assay: MTT assay, cell proliferation inhibition; type: cell-based; conditions: 48 h
# Text: (§1) Material: aptamer triptolide conjugate (AS1411-TP). Triptolide (TP) was provided by Shanghai Yaji Biotechnology Co. Ltd; aptamer (AS1411) was obtained from Chengdu Pilot Drug Development Co. Ltd; trypsin, thiazolyl blue (MTT) (Biofroxx, Germany); dimethyl sulfoxide (DMSO) (MP Biomedicals, France); fetal bovine serum (FBS) (Newzerum, New Zealand); DMEM medium, RPMI1640 medium, Petri dishes, 96-well plates (Corning, USA); colon cancer cells HCT116, breast cancer cells MDA-MB-231, non-small-cell lung cancer cells A549, pancreatic cancer cells PANC-1, and hepatocellular carcinoma cells HepG2 were purchased from the Shanghai Cell Bank of the Chinese Academy of Sciences and preserved in the laboratory.
# (§2) Take the tumor cells HCT116, MDA-MB-231, A549, PANC-1 and HepG2 cell lines from the liquid nitrogen tank, place them in a 37° C. water bath, wait for the frozen cells to melt into cell suspension, centrifuge the cells at 1000 r/min for 3 min, discard the supernatant, add 1 ml of fresh complete medium containing 10% fetal bovine serum and 1% double antibody to mix the cells, then add 5 ml of medium, gently and repeatedly blowing the cells with a pipette gun to make them mix well. Then add 5 ml of medium, blow the cells gently and repeatedly with a pipette gun to mix them well, and finally transfer the cell suspension to a […] and label the cell name, cell number, date of resuscitation and the operator's name, and place it in a cell culture incubator for cultivation. (HCT116, PANC-1 and HepG2 cell lines were cultured in DMEM medium, while MDA-MB-231 cell line and A549 cell line were cultured in RPMI1640 medium).
# (§3) Take HCT116, MDA-MB-231, A549, PANC-1, HepG2 cells with good growth status, remove the medium, add 1 ml of sterile PBS to wash, add 1.5 ml of trypsin to digest the cells, about 2 min later the cells become round and fall off, add 1.5 ml of medium to terminate the digestion, transfer it to centrifugal tube, centrifuge at 1000 r/min for 3 min, discard the supernatant, add 1 ml of fresh medium to resuspend, then add fresh medium for 1:3 distribution to other culture dishes, and label the date of transmission and the number of generations. Place in the cell culture incubator for cultivation.
# (§4) Take HCT116, MDA-MB-231, A549, PANC-1, HepG2 cells with good growth status, by the same operation as the cell passaging experiment, after cell resuspension, cell counting with hemocyte counting plate, with 2500 cells/well, plant in 96-well plate, after 24 h of cell culture, remove the original medium, add medium containing different concentrations of drugs and continue to cultivate for 48 hours. After 24 h of cell culture, the original medium was removed and the medium containing different concentrations of drugs was added to continue the culture for 48 hours. […] The above steps were repeated three times.
# [3] = system: pancreatic cancer cell line PANC-1; assay: MTT assay, cell proliferation inhibition; type: cell-based; conditions: 48 h
# Text: as §1, §2, §3, §4
compound,measurement,setting,value
"CC(C)[C@]12O[C@H]1[C@@H]1O[C@]13[C@]1(O[C@H]1C[C@H]1C4=C(CC[C@@]13C)C(=O)OC4)[C@@H]2O [TP, Triptolide]",RTV,[1]; 10 μM tail vein,26.1 ± 0.09
same,T/C (%),[1]; 10 μM tail vein,51.81%
same,Tumor inhibition rate (%),[1]; 10 μM tail vein,27.27%
same,Tumor weight,[1]; 10 μM tail vein,2.47 ± 0.08
same,RTV,[1]; 30 μM tail vein,17.91 ± 0.27
same,T/C (%),[1]; 30 μM tail vein,31.59%
same,Tumor inhibition rate (%),[1]; 30 μM tail vein,48.48%
same,Tumor weight,[1]; 30 μM tail vein,1.79 ± 0.19
same,RTV,[1]; 50 μM tail vein,10.92 ± 0.15
same,T/C (%),[1]; 50 μM tail vein,89.93%
same,Tumor inhibition rate (%),[1]; 50 μM tail vein,63.64%
same,Tumor weight,[1]; 50 μM tail vein,1.29 ± 0.27
same,cell proliferation inhibition rate,"[2]; HepG2, 3.1 nM, samples 1-3, 0.0031 µM",28.7555 and 29.2302
same,cell proliferation inhibition rate,"[2]; HepG2, 6.3 nM, samples 1-3, 0.0063 µM",39.8542 and 49.5151
same,cell proliferation inhibition rate,"[2]; HepG2, 12.5 nM, samples 1-3, 0.0125 µM",51.8210 and 55.5307
same,cell proliferation inhibition rate,"[2]; HepG2, 25.0 nM, samples 1-3, 0.025 µM",66.7752 and 69.1489
same,cell proliferation inhibition rate,"[2]; HepG2, 50.0 nM, samples 1-3, 0.05 µM",79.9729 and 77.1075
same,cell proliferation inhibition rate,"[2]; HepG2, 100.0 nM, samples 1-3, 0.1 µM",88.3181 and 85.8901
same,cell proliferation inhibition rate,"[2]; HepG2, 200.0 nM, samples 1-3, 0.2 µM",99.2815 and 99.0448
same,inhibition at 0.0031 µM,"[2]; Homo sapiens, HepG2, 48 h, HepG2, 3.1 nM, samples 1-3, read-out: cell proliferation inhibition rate",29%
same,inhibition at 0.0063 µM,"[2]; Homo sapiens, HepG2, 48 h, HepG2, 6.3 nM, samples 1-3, read-out: cell proliferation inhibition rate",39.7%
same,inhibition at 0.0125 µM,"[2]; Homo sapiens, HepG2, 48 h, HepG2, 12.5 nM, samples 1-3, read-out: cell proliferation inhibition rate",48.7%
same,inhibition at 0.025 µM,"[2]; Homo sapiens, HepG2, 48 h, HepG2, 25.0 nM, samples 1-3, read-out: cell proliferation inhibition rate",68%
same,inhibition at 0.05 µM,"[2]; Homo sapiens, HepG2, 48 h, HepG2, 50.0 nM, samples 1-3, read-out: cell proliferation inhibition rate",78.5%
same,inhibition at 0.1 µM,"[2]; Homo sapiens, HepG2, 48 h, HepG2, 100.0 nM, samples 1-3, read-out: cell proliferation inhibition rate",88.2%
same,inhibition at 0.2 µM,"[2]; Homo sapiens, HepG2, 48 h, HepG2, 200.0 nM, samples 1-3, read-out: cell proliferation inhibition rate",95.2%
same,IC50,"[2]; Homo sapiens, hepatocellular carcinoma cells HepG2, MTT",10.5 ± 0.33 nM
same,inhibition at 0.0031 µM,"[3]; Homo sapiens, PANC-1, 48 h, PANC-1, 3.1 nM, samples 1-3, read-out: cell proliferation inhibition rate",31.2%
same,inhibition at 0.0063 µM,"[3]; Homo sapiens, PANC-1, 48 h, PANC-1, 6.3 nM, samples 1-3, read-out: cell proliferation inhibition rate",36%
same,inhibition at 0.0125 µM,"[3]; Homo sapiens, PANC-1, 48 h, PANC-1, 12.5 nM, samples 1-3, read-out: cell proliferation inhibition rate",49.2%
same,inhibition at 0.025 µM,"[3]; Homo sapiens, PANC-1, 48 h, PANC-1, 25.0 nM, samples 1-3, read-out: cell proliferation inhibition rate",59%
same,inhibition at 0.05 µM,"[3]; Homo sapiens, PANC-1, 48 h, PANC-1, 50.0 nM, samples 1-3, read-out: cell proliferation inhibition rate",64.8%
same,inhibition at 0.1 µM,"[3]; Homo sapiens, PANC-1, 48 h, PANC-1, 100.0 nM, samples 1-3, read-out: cell proliferation inhibition rate",80.3%
same,inhibition at 0.2 µM,"[3]; Homo sapiens, PANC-1, 48 h, PANC-1, 200.0 nM, samples 1-3, read-out: cell proliferation inhibition rate",93%
same,IC50,"[3]; Homo sapiens, pancreatic cancer cells PANC-1, MTT",14.4 ± 0.09 nM
same,cell proliferation inhibition rate,"[3]; PANC-1, 3.1 nM, samples 1-3, 0.0031 µM",30.2815 and 32.0448
same,cell proliferation inhibition rate,"[3]; PANC-1, 6.3 nM, samples 1-3, 0.0063 µM",37.1753 and 34.7338
same,cell proliferation inhibition rate,"[3]; PANC-1, 12.5 nM, samples 1-3, 0.0125 µM",47.8196 and 50.5663
same,cell proliferation inhibition rate,"[3]; PANC-1, 25.0 nM, samples 1-3, 0.025 µM",58.7555 and 59.2302
same,cell proliferation inhibition rate,"[3]; PANC-1, 50.0 nM, samples 1-3, 0.05 µM",65.1441 and 74.5337
same,cell proliferation inhibition rate,"[3]; PANC-1, 100.0 nM, samples 1-3, 0.1 µM",81.0105 and 79.6202
